Results on 83 compounds are retold here after the Kinase Knowledgebase extract (Sharma et al. 2016).

The assay concerns the target MAPK14 (human) (UniProt Q16539). As to the kind of experiment: Inhibition of MAPK14 Kinase Activity.

MAPK14 (human), sequence (Q16539 whole entry, looked up): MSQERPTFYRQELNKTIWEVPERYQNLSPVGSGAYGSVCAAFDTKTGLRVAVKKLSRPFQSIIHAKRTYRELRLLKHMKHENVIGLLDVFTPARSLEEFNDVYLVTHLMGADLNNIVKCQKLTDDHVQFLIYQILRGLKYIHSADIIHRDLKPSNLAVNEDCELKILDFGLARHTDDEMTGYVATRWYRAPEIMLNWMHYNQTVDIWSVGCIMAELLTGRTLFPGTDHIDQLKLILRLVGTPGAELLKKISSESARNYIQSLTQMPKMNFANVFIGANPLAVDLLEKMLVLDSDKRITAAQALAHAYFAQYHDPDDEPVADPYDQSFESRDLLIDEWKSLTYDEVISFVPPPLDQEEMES

Consider `CC(C)Cn1c(N)nc2ccc(-c3[nH]c(C(C)(C)C)nc3-c3ccc(F)cc3)cc21`, for which the IC50 – broadly, the concentration that inhibits the measured activity by half – was ≤ 5 µM.
As for `C[C@@H](n1c(N)nc2ccc(-c3[nH]c(-c4c(F)cccc4Cl)nc3-c3ccccc3)cc21)C(C)(C)C`, the figure is ≤ 5 µM.
For `CC(C)(C)Cn1c(N)nc2ccc(-c3[nH]c(C(C)(C)C)nc3-c3ccccc3)cc21` the value was ≤ 5 µM.
As for `CC(C)Cn1c(N)nc2ccc(-c3c(-c4ccccc4)nc(C4CCCCC4)n3C)cc21`, the IC50 is ≤ 5 µM.
As for `CC(C)Cn1c(N)nc2cc(-c3[nH]c(-c4c(F)cccc4Cl)nc3-c3ccccc3)ccc21`, the figure is ≤ 5 µM; as for `Nc1nc2ccc(-c3nc(C4CC4)[nH]c3-c3ccc(F)cc3F)cc2n1CC1CC1`, ≤ 5 µM; as for `Clc1ccc(-c2nc(-c3ccccc3)c(-c3ccc4ncn(CC5CC5)c4c3)[nH]2)cc1`, ≤ 5 µM.
As for `c1ccc(-c2nc(-c3ccc(OCCN4CCCCC4)cc3)[nH]c2-c2ccc3ncn(CC4CC4)c3c2)cc1`, the figure is ≤ 5 µM.
As for `CC(C)Cn1c(N)nc2ccc(-c3oc(C(C)(C)C)nc3-c3ccc(F)cc3F)cc21`, the figure is ≤ 5 µM; as for `CCCn1cnc2ccc(-c3[nH]c(-c4c(F)cccc4F)nc3-c3ccccc3)cc21`, ≤ 5 µM.
On to `CC(C)Cn1c(N)nc2ccc(-c3[nH]c(-c4c(F)cccc4C(F)(F)F)nc3-c3ccccc3)cc21`, for which the IC50 was ≤ 5 µM.
Consider `C[C@H](n1c(N)nc2ccc(-c3[nH]c(C(C)(C)C)nc3-c3ccccc3)cc21)C(C)(C)C`, for which the IC50 is ≤ 5 µM.
As for `CCCCn1cnc2ccc(-c3[nH]c(-c4c(F)cccc4F)nc3-c3ccccc3)cc21`, the IC50 is ≤ 5 µM.
For `CC(C)Cn1c(N)nc2ccc(-c3c(-c4ccccc4)ncn3C)cc21` the value was ≤ 5 µM; for `Cc1nc(-c2ccc(F)cc2F)c(-c2ccc3nc(N)n(CC(C)C)c3c2)[nH]1`, ≤ 5 µM.
For `CC(C)Cn1c(N)nc2ccc(-c3cn(C(C)(C)C)nc3-c3ccccc3)cc21` the value was ≤ 5 µM.
As for `CCC(CC)n1c(N)nc2ccc(-c3[nH]c(-c4c(F)cccc4F)nc3-c3ccccc3)cc21`, the figure is ≤ 5 µM.
Regarding `CC(C)(C)c1nc(-c2ccc3nc(N)n(CC4CC4)c3c2)c(-c2ccc(F)cc2F)[nH]1`, the IC50 is ≤ 5 µM.
For `CCOCN1=NC(=C(N1)c2ccc3nc(N)n(CC(C)C)c3c2)c4ccccc4` the value was ≤ 5 µM.
As for `CC(C)n1cnc2ccc(-c3n[nH]nc3-c3ccccc3)cc21`, the figure is ≤ 5 µM; as for `CC(C)Cn1c(N)nc2ccc(-n3ccnc3-c3ccccc3)cc21`, ≤ 5 µM.
For `CC(C)Cn1c(N)nc2ccc(-c3[nH]c(-c4c(F)cccc4Cl)nc3-c3ccccc3)cc21` the value was ≤ 5 µM; for `Cc1nc2ccc(-c3nc(-c4c(F)cccc4F)[nH]c3-c3ccccc3)cc2n1CC(C)C`, ≤ 5 µM.
As to `CC(C)Cn1c(N)nc2ccc(-c3[nH]c(C(C)(C)C)nc3-c3ccc(F)cc3F)cc21`, the IC50 was ≤ 5 µM.
Regarding `Cc1nc(-c2ccccc2)c(-c2ccc3nc(N)n(CC(C)C)c3c2)[nH]1`, the IC50 was ≤ 5 µM.
As for `CC(C)Cn1c(N)nc2ccc(-c3[nH]c(-c4c(F)cccc4F)nc3-c3ccccc3)cc21`, the figure is ≤ 5 µM; as for `CC(C)C(C)n1c(N)nc2ccc(-c3[nH]c(-c4c(F)cccc4F)nc3-c3ccccc3)cc21` (stereo not drawn), ≤ 5 µM; as for `CC(C)Cn1c(N)nc2ccc(-c3[nH]c(C4CC4)nc3-c3ccc(F)cc3F)cc21`, ≤ 5 µM.
Take `CC(C)Cn1c(N)nc2ccc(-c3c(-c4ccc(F)cc4)ncn3C)cc21`: the IC50 is ≤ 5 µM.
For `CC(C)(C)Cn1c(N)nc2ccc(-c3[nH]c(C(C)(C)C)nc3-c3ccc(F)cc3F)cc21` the value was ≤ 5 µM; for `Cc1nc2ccc(-c3c(-c4ccccc4)ncn3C3CCCCC3)cc2n1CC(C)C`, ≤ 5 µM.
On to `CC(C)(C)Cn1c(N)nc2ccc(-c3nc(-c4c(Cl)cccc4Cl)[nH]c3-c3ccccc3)cc21`, for which the half-maximal inhibitory concentration (IC50) is ≤ 5 µM.
For `Nc1nc2ccc(-c3[nH]c(-c4c(F)cccc4F)nc3-c3ccccc3)cc2n1C1CCCC1` the value was ≤ 5 µM; for `CC(C)Cn1cnc2ccc(-c3[nH]c(-c4c(F)cccc4F)nc3-c3ccccc3)cc21`, ≤ 5 µM.
As for `CC(C)Cn1c(N)nc2ccc(-c3c(-c4ccccc4)nc4ccccn34)cc21`, the figure is ≤ 5 µM; as for `CC(C)Cn1c(N)nc2ccc(-c3nc(-c4c(Cl)cccc4Cl)[nH]c3-c3ccccc3)cc21`, ≤ 5 µM; as for `C[C@@H](n1c(N)nc2ccc(-c3[nH]c(C(C)(C)C)nc3-c3ccccc3)cc21)C(C)(C)C`, ≤ 5 µM.
As for `CC(C)(C)Cn1cnc2ccc(-c3[nH]c(-c4c(F)cccc4F)nc3-c3ccccc3)cc21`, the figure is ≤ 5 µM; as for `CC(C)n1c(N)nc2ccc(-c3[nH]c(-c4c(F)cccc4F)nc3-c3ccccc3)cc21`, ≤ 5 µM; as for `Nc1nc2ccc(-c3nc(-c4c(F)cccc4F)[nH]c3-c3ccc(F)cc3F)cc2n1CC1CC1`, ≤ 5 µM.
On to `CC(C)Cn1c(N)nc2ccc(-c3c(-c4ccccc4)nc(C4CC4)n3C)cc21`, for which the IC50 was ≤ 5 µM.
Consider `CCn1cnc2ccc(-c3[nH]c(-c4c(F)cccc4F)nc3-c3ccccc3)cc21`, for which the IC50 was ≤ 5 µM.
For `CC(C)Cn1cnc2ccc(-c3n[nH]nc3-c3ccccc3)cc21` the value was ≤ 5 µM; for `Cc1nc2ccc(-c3cn[nH]c3-c3ccc(F)cc3)cc2n1CC(C)C`, ≤ 5 µM.
As for `Nc1nc2ccc(-c3nc(-c4ccc(F)cc4F)[nH]c3-c3c(F)cccc3C(F)(F)F)cc2n1CC1CC1`, the IC50 is ≤ 5 µM.
With `CC(C)(C)Cn1c(N)nc2ccc(-c3nc(-c4c(Cl)cccc4Cl)[nH]c3-c3ccc(F)cc3F)cc21`, the IC50 was ≤ 5 µM.
For `CC(C)Cn1c(N)nc2ccc(-c3n[nH]nc3-c3ccc(F)cc3F)cc21` the value was ≤ 5 µM.
As for `Fc1cccc(F)c1-c1nc(-c2ccccc2)c(-c2ccc3nc[nH]c3c2)[nH]1`, the figure is ≤ 5 µM.
In the case of `C[C@@H](n1c(N)nc2ccc(-c3[nH]c(-c4c(F)cccc4F)nc3-c3ccccc3)cc21)C(C)(C)C`, the IC50 was ≤ 5 µM.
For `CC(C)Cn1c(N)nc2ccc(-c3cn(C(C)C)nc3-c3ccccc3)cc21`, the IC50 was ≤ 5 µM.
As for `CC(C)(C)Cn1c(N)nc2ccc(-c3[nH]c(-c4c(F)cccc4C(F)(F)F)nc3-c3ccccc3)cc21`, the figure is ≤ 5 µM; as for `CC(C)Cn1c(N)nc2ccc(-c3[nH]c(-c4ccccc4C(F)(F)F)nc3-c3ccccc3)cc21`, ≤ 5 µM.
For `CC(C)Cn1c(N)nc2ccc(-c3[nH]c(-c4c(F)cccc4Cl)nc3-c3ccc(F)cc3F)cc21` the value was ≤ 5 µM.
On to `Cn1cnc2ccc(-c3[nH]c(-c4c(F)cccc4F)nc3-c3ccccc3)cc21`, for which the IC50 was ≤ 5 µM.
On to `CC(C)Cn1cnc2ccc(-c3c(-c4ccccc4)ncn3C3CCCCC3)cc21`, for which the IC50 was ≤ 5 µM.
As for `CC(C)Cn1c(N)nc2ccc(-c3cn(C(C)C)nc3-c3ccc(F)cc3)cc21`, the figure is ≤ 5 µM; as for `CC(C)(C)Cn1c(N)nc2ccc(-c3[nH]c(-c4c(F)cccc4Cl)nc3-c3ccc(F)cc3F)cc21`, ≤ 5 µM; as for `Cc1nc(-c2ccc(F)cc2F)c(-c2ccc3nc(N)n(C(C)C(C)C)c3c2)[nH]1` (stereo not drawn), ≤ 5 µM.
As for `CC(C)(C)Cn1c(N)nc2ccc(-c3[nH]c(C4CC4)nc3-c3ccccc3)cc21`, the figure is ≤ 5 µM.
As for `CC(C)Cn1c(N)nc2ccc(-c3[nH]c(-c4c(F)cccc4C(F)(F)F)nc3-c3ccc(F)cc3F)cc21`, the IC50 is ≤ 5 µM.
For `CC(C)Cn1c(N)nc2ccc(-c3[nH]c(-c4c(Cl)cccc4Cl)nc3-c3ccc(F)cc3F)cc21` the value was ≤ 5 µM; for `CC(C)n1cnc2ccc(-c3[nH]c(-c4c(F)cccc4F)nc3-c3ccccc3)cc21`, ≤ 5 µM.
For `CC(C)Cn1c(N)nc2ccc(-c3oc(C(C)(C)C)nc3-c3ccc(F)cc3)cc21` the value was ≤ 5 µM; for `CC(C)Cn1c(N)nc2ccc(-c3c[nH]nc3-c3ccc(F)cc3F)cc21`, ≤ 5 µM.
In the case of `CC(C)Cn1c(N)nc2ccc(-c3[nH]c(-c4ccc(Cl)cc4)nc3-c3ccc(F)cc3)cc21`, the half-inhibitory concentration (IC50) is ≤ 5 µM.
As for `CC(C)Cn1c(N)nc2ccc(-c3n[nH]nc3-c3ccccc3)cc21`, the figure is ≤ 5 µM.
Take `CC(C)Cn1c(N)nc2ccc(-c3c(-c4ccccc4)nc(-c4ccc(Cl)cc4)n3C)cc21`: the IC50 was ≤ 5 µM.
As for `CCCCn1c(N)nc2ccc(-c3[nH]c(-c4c(F)cccc4F)nc3-c3ccccc3)cc21`, the figure is ≤ 5 µM; as for `CCn1c(N)nc2ccc(-c3[nH]c(-c4c(F)cccc4F)nc3-c3ccccc3)cc21`, ≤ 5 µM; as for `Nc1nc2ccc(-c3nc(-c4c(F)cccc4Cl)[nH]c3-c3ccccc3)cc2n1CC1CC1`, ≤ 5 µM.
Regarding `Nc1nc2ccc(-c3nc(-c4c(Cl)cccc4Cl)[nH]c3-c3ccc(F)cc3F)cc2n1CC1CC1`, the IC50 is ≤ 5 µM.
For `Nc1nc2ccc(-c3[nH]c(-c4c(F)cccc4F)nc3-c3ccccc3)cc2n1Cc1cccc(F)c1` the value was ≤ 5 µM; for `CC(C)Cn1c(N)nc2ccc(-c3nc(-c4c(F)cccc4Cl)[nH]c3-c3ccc(F)cc3)cc21`, ≤ 5 µM.
As for `CC(C)Cn1c(N)nc2ccc(-c3cn(C)nc3-c3ccccc3)cc21`, the figure is ≤ 5 µM; as for `CC(C)Cn1c(N)nc2ccc(-c3[nH]c(C(C)C)nc3-c3ccccc3)cc21`, ≤ 5 µM.
As to `C[C@H](n1c(N)nc2ccc(-c3[nH]c(-c4c(F)cccc4Cl)nc3-c3ccccc3)cc21)C(C)(C)C`, the IC50 was ≤ 5 µM.
Consider `CC(C)Cn1c(N)nc2ccc(-c3[nH]c(C4CC4)nc3-c3ccccc3)cc21`, for which the half-inhibitory concentration (IC50) is ≤ 5 µM.
As to `Nc1nc2ccc(-c3[nH]c(-c4c(F)cccc4F)nc3-c3ccccc3)cc2n1CC1CC1`, the IC50 was ≤ 5 µM.
For `CC(n1c(N)nc2ccc(-c3[nH]c(-c4c(F)cccc4F)nc3-c3ccccc3)cc21)C(C)(C)C` (stereo not drawn) the value was ≤ 5 µM; for `Cc1onc(-c2ccccc2)c1-c1ccc2nc(N)n(S(=O)(=O)C(C)C)c2c1`, ≤ 5 µM; for `CC(C)Cn1c(N)nc2ccc(-c3[nH]c(C(F)(F)F)nc3-c3ccccc3)cc21`, ≤ 5 µM.
For the compound `C[C@H](n1c(N)nc2ccc(-c3[nH]c(-c4c(F)cccc4F)nc3-c3ccccc3)cc21)C(C)(C)C`, the IC50 is ≤ 5 µM.
For `CC(C)Cn1c(N)nc2ccc(-c3[nH]c(C4CC4)nc3-c3ccc(F)cc3)cc21` the value was ≤ 5 µM.
